Test results taken from the RepoRT retention time repository (doi:10.1016/j.chroma.2014.05.003).

Assay: RP, Agilent ZORBAX Eclipse Plus C18, 50 × 4.6 mm, 1.8 µm, 0.5 mL/min, estimated dead time 1.1 min; A: water + 0.1% formic acid; B: acetonitrile + 0.1% formic acid; gradient (min/%B) 0/10 3/10 25/100 28/100
Settings: stereoisomer not certain

SMILES	LC retention time
CON=C(C(=O)NC1C(=O)N2C(C(=O)O)=C(COC(C)=O)CSC12)c1csc(N)n1 (stereo unspecified)	6.29 min
CCNc1nc(NC(C)C(C)C)nc(SC)n1 (stereo unspecified)	13.1 min
O=C(NN=Cc1ccc([N+](=O)[O-])o1)c1ccc(O)cc1	9.51 min
CCOC(=O)C(CCc1ccccc1)NC(C)C(=O)N1CCCC1C(=O)O (stereo unspecified)	9.21 min
CCCC1CC(C(=O)NC(C(C)O)C2OC(SC)C(O)C(O)C2O)N(C)C1 (stereo unspecified)	3.66 min
CNC(C)C(O)c1ccccc1 (stereo unspecified)	2.78 min
CNC(=O)C=C(C)OP(=O)(OC)OC	5.55 min
CN1C(=O)CCC1c1cccnc1 (stereo unspecified)	1.35 min
COC(=O)Nc1nc2ccccc2[nH]1	3.27 min
CCC1OC(=O)CC(O)C(C)C(OC2OC(C)C(OC3CC(C)(O)C(O)C(C)O3)C(N(C)C)C2O)C(CC=O)CC(C)C(=O)C=CC(C)=CC1COC1OC(C)C(O)C(OC)C1OC (stereo unspecified)	10.1 min
CSc1nnc(C(C)(C)C)c(=O)n1N	11.5 min
CCCCCc1cc(O)c2c(c1)OC(C)(C)C1CCC(C(=O)O)=CC21 (stereo unspecified)	19.1 min
CCNC(C)Cc1ccccc1 (stereo unspecified)	5.85 min
NC(N)=Nc1nc(CSCCC(N)=NS(N)(=O)=O)cs1	1.81 min
CNC(C)Cc1ccccc1 (stereo unspecified)	4.88 min
CCC1OC(=O)C(C)C(OC2CC(C)(OC)C(O)C(C)O2)C(C)C(OC2OC(C)CC(N(C)C)C2O)C(C)(OC)CC(C)C(=O)C(C)C(O)C1(C)O (stereo unspecified)	11.1 min
CCCCC(CC)COC(=O)c1ccccc1C(=O)OCC(CC)CCCC (stereo unspecified)	27.5 min
CC(N)Cc1ccc2c(c1)OCO2 (stereo unspecified)	4.74 min
COc1ccc2cc(C(C)C(=O)O)ccc2c1 (stereo unspecified)	13.8 min
COP(N)(=S)Oc1ccccc1C(=O)OC(C)C (stereo unspecified)	14.9 min
CCCCN(CCCC)N=O	15.9 min
CC1(C)SC2C(NC(=O)Cc3ccccc3)C(=O)N2C1C(=O)O (stereo unspecified)	10.8 min
CC(C)NCC(O)COc1cccc2ccccc12 (stereo unspecified)	9.19 min
CCn1cc(C(=O)O)c(=O)c2cnc(N3CCNCC3)nc21	4.78 min

SMILES	LC retention time
COc1ccc(-c2ccccc2)cc1NNC(=O)OC(C)C	16.6 min
CCn1cc(C(=O)O)c(=O)c2ccc(C)nc21	11.5 min
Cc1ncc([N+](=O)[O-])n1CCO	2.77 min
CNC(=O)Oc1cccc2c1OC(C)(C)C2O (stereo unspecified)	7.87 min
CN(C)c1ccc(C(c2ccccc2)c2ccc(N(C)C)cc2)cc1	12.6 min
Cc1nnc(NS(=O)(=O)c2ccc(N)cc2)s1	7.12 min
CCCCCCCCCCCCCC[N+](C)(C)Cc1ccccc1	18.4 min
CN(C)C1C(=O)C(C(N)=O)=C(O)C2(O)C(=O)C3=C(O)c4c(O)cccc4C(C)(O)C3CC12 (stereo unspecified)	6.62 min
CNC(=O)CSP(=O)(OC)OC	2.22 min
CCOP(=S)(OCC)Oc1ccc([N+](=O)[O-])cc1	18.5 min
CNCC(O)c1cccc(O)c1 (stereo unspecified)	1.36 min
COC(=O)NS(=O)(=O)c1ccc(N)cc1	5.43 min
CN1C2CCC1CC(OC(=O)C(CO)c1ccccc1)C2 (stereo unspecified)	6.29 min
COc1cccc(C(=O)NN(C(=O)c2cc(C)cc(C)c2)C(C)(C)C)c1C	16.6 min
CCOP(=S)(OCC)Oc1cnc2ccccc2n1	18.2 min
Cc1cccc(C)c1N	5.94 min
CC(C)Cc1ccc(C(C)C(=O)O)cc1 (stereo unspecified)	16.6 min
Cc1cccc(Nc2ccccc2C(=O)O)c1C	17.7 min
CC(C)NCC(O)COc1cccc2[nH]ccc12 (stereo unspecified)	5.55 min
CCOc1cc(OP(=S)(OC)OC)nc(CC)n1	18.8 min
CN(C)C(=O)Nc1ccccc1	7.72 min
CCOP(=O)(OCC)OCC	9.03 min
CN(C(=O)COc1nc2ccccc2s1)c1ccccc1	16 min
CCCCc1c(C)nc(NCC)nc1OS(=O)(=O)N(C)C	14.4 min

SMILES	LC retention time
COc1nn(CSP(=S)(OC)OC)c(=O)s1	15.3 min
CCOP(=S)(OCC)Oc1ccc(=O)n(-c2ccccc2)n1	16.1 min
CCNc1nc(NC(C)(C)C)nc(OC)n1	9.32 min
CN(C)C1C(=O)C(C(N)=O)=C(O)C2(O)C(=O)C3=C(O)c4c(O)cccc4C(C)(O)C3C(O)C12 (stereo unspecified)	6.11 min
CC12CCC(=O)C=C1CCC1C2CCC2(C)C(O)CCC12 (stereo unspecified)	13.7 min
COc1nc(NC(C)C)nc(NC(C)C)n1	9.02 min
CN1C2CCC1C(C(=O)O)C(OC(=O)c1ccccc1)C2 (stereo unspecified)	6.61 min
CCN(CC)c1nc(C)cc(OP(=S)(OC)OC)n1	19 min
CC(C)(C)c1ccc(CCOc2ncnc3ccccc23)cc1	22 min
CC1=C(C(=O)Nc2ccccc2)SCCO1	13.1 min
CC(C)N1C(=O)N(c2ccccc2)CSC1=NC(C)(C)C	18.3 min
C=C(C)C1CCC(C)=CC1c1c(O)cc(CCCCC)cc1O (stereo unspecified)	21.2 min
Cc1cc(C)c(C2=C(OC(=O)CC(C)(C)C)C3(CCCC3)OC2=O)c(C)c1	23.1 min
COC=C(C(=O)OC)c1ccccc1Oc1cc(Oc2ccccc2C#N)ncn1	15.8 min
CNc1nc(NC(C)C)nc(SC)n1	8.8 min
CCOC(=O)CC(SP(=O)(OC)OC)C(=O)OCC (stereo unspecified)	11.8 min
COP(=S)(OC)SCn1nnc2ccccc2c1=O	15.4 min
Cc1cc(C2CC2)nc(Nc2ccccc2)n1	14.3 min
CN=C(NC#N)NCCSCc1nc[nH]c1C	1.83 min
CNC(=O)Oc1cc(C)c(SC)c(C)c1	15 min
COCCOc1ccccc1S(=O)(=O)NC(=O)Nc1nc(OC)nc(OC)n1	11.9 min
CC12CCC3C(=CCc4cc(O)ccc43)C1CCC2=O (stereo unspecified)	14.4 min
CS(=O)(=O)c1ccc(C(=O)C2C(=O)CCCC2=O)c([N+](=O)[O-])c1	12 min
CC(C)(c1ccc(O)cc1)c1ccc(O)cc1	13.1 min

SMILES	LC retention time
CCCN(CCC)C(=O)SCc1ccccc1	20.4 min
CCOc1ccc2c(c1)C(C)=CC(C)(C)N2	11.8 min
CCC(C)C(=O)OC1CC(O)C=C2C=CC(C)C(CCC(O)CC(O)CC(=O)O)C21 (stereo unspecified)	10.7 min
c1coc(-c2nc3ccccc3[nH]2)c1	5.19 min
CC(Cc1ccc(C(C)(C)C)cc1)CN1CCCCC1 (stereo unspecified)	12.5 min
c1ccc(Nc2ccccc2)cc1	17.2 min
Nc1ccc(S(=O)(=O)Nc2nccs2)cc1	5.2 min
COc1ccc2c3c1OC1C(O)C=CC4C(C2)N(C)CCC341 (stereo unspecified)	3.16 min
Cc1ccc(C)c(OCCCC(C)(C)C(=O)O)c1	18.1 min
COC(=O)C(C)N(C(=O)Cc1ccccc1)c1c(C)cccc1C (stereo unspecified)	18.1 min
CCNc1nc(NC(C)C)nc(SC)n1	10.4 min
CCN(CC)N=O	15.9 min
CN(C)CCOC(c1ccccc1)c1ccccc1	9.81 min
COCC(=O)N(c1c(C)cccc1C)C(C)C(=O)OC (stereo unspecified)	12.9 min
CC(COc1ccc(Oc2ccccc2)cc1)Oc1ccccn1 (stereo unspecified)	21.2 min
CCC1OC(=O)C(C)C(OC2CC(C)(OC)C(O)C(C)O2)C(C)C(OC2OC(C)CC(N(C)C)C2O)C(C)(O)CC(C)C(=O)C(C)C(O)C1(C)O (stereo unspecified)	9.73 min
CCC(=O)C(CC(C)N(C)C)(c1ccccc1)c1ccccc1 (stereo unspecified)	11.4 min
CNC(=O)ON=C(C)C(C)SC (stereo unspecified)	9.65 min
CNC(=O)Oc1cc(C)cc(C(C)C)c1	15 min
CCC1CCCC(OC2CCC(N(C)C)C(C)O2)C(C)C(=O)C2=CC3C(C=C(C)C4CC(OC5OC(C)C(OC)C(OC)C5OC)CC43)C2CC(=O)O1 (stereo unspecified)	14.2 min
Cn1c(=O)c2[nH]cnc2n(C)c1=O	2.8 min
CN(C)c1nc(=O)n(C2CCCCC2)c(=O)n1C	10.1 min
CCOP(=S)(OCC)OP(=S)(OCC)OCC	19.3 min
NC(=O)Cc1cccc2ccccc12	10 min

SMILES	LC retention time
CON(C(=O)c1cc(C)oc1C)C1CCCCC1	17.7 min
CC12CCC3c4ccc(O)cc4CCC3C1CCC2=O (stereo unspecified)	14.6 min
CNC(=O)ON=CC(C)(C)SC	10.2 min
COc1cc(C2c3cc4c(cc3C(OC3OC5COC(C)OC5C(O)C3O)C3COC(=O)C23)OCO4)cc(OC)c1OP(=O)(O)O (stereo unspecified)	16.1 min
CC(=O)OC1C=CC2C3Cc4ccc(O)c5c4C2(CCN3C)C1O5 (stereo unspecified)	4.94 min
COC(=O)c1ccc(C)cc1C1=NC(C)(C(C)C)C(=O)N1 (stereo unspecified)	9.12 min
Cc1nc(N(C)C)nc(OC(=O)N(C)C)c1C	6.86 min
O=NN1CCCCC1	6.57 min
COCC(=O)N(c1c(C)cccc1C)N1CCOC1=O	10.9 min
CC(C)C1(C)N=C(c2nc3ccccc3cc2C(=O)O)NC1=O (stereo unspecified)	11 min
CCC(C)(CC)c1cc(NC(=O)c2c(OC)cccc2OC)on1	16.5 min
CNC(=O)ON=CC(C)(C)S(C)=O (stereo unspecified)	2.7 min
Cc1ccc(C(C)(C)C)c(O)c1C(=O)O	14.2 min
CC(Cc1ccc(C(C)(C)C)cc1)CN1CC(C)OC(C)C1 (stereo unspecified)	12.4 min
CCOc1ccc(NC(=O)OC(C)C)cc1OCC	15.3 min
CC(C)C1(C)N=C(c2ncccc2C(=O)O)NC1=O (stereo unspecified)	16.5 min
CN1CCCC1c1cccnc1 (stereo unspecified)	1.36 min
COP(=S)(OC)Oc1ccc([N+](=O)[O-])c(C)c1	17.2 min
CC(C)N1C(=O)c2ccccc2NS1(=O)=O	12.7 min
COC(=O)c1ccccc1S(=O)(=O)NC(=O)Nc1nc(C)cc(C)n1	12.2 min
